Measured values published in US5795885A, “Method of inhibiting profileration of cells by administering an aminosterol compound” (priority 1995, dated 1998).
Values after ≈ are worked out from the molar mass of the structure shown.

Assays:
[1] = tested on: chick embryo vitelline capillaries; assay: chick embryo vitelline capillary regression assay; format: in vivo; set-up: key to vitelline capillary regression: +: Vascular reactivity; 0: No vascular reactivity; +/-: Equivocal reactivity; settings: 1 μg applied; 60 minutes
Procedure: Using the chick embryo vitelline capillaries assay, compounds were tested for their ability to induce capillary regression. Each compound was applied in 0.1 ml of 15% Ficol 400 and PBS onto the embryo, and vascular regression was assessed after 60 minutes.
The 3-day chick embryo consists of an embryonic disc from which numerous vessels emerge and return, forming a "figure 8"-shaped structure--the embryo in the center with vascular loops extending outward over both poles. […] Following a lag period of around 15 minutes, the constriction of continuity between capillary and secondary vessels, generally on the "venous" side, was observed. Continued pulsatile blood flow progressed, resulting in a "swelling" of the blind tube, followed by a pinching off of the remaining connection and formation of an enclosed vascular sac resembling a "blood island." This process progressed until only the largest vessels remained intact.

[2] = tested on: stage 59-60 Xenopus tadpoles
P. aerug = assay: antibiotic activity (MIC); format: cell-based

SMILES | MIC (P. aerug) [µg/mL] | other results
C[C@H](CCC(=O)O)[C@H]1CC[C@H]2[C@@H]3CC[C@H]4C[C@H](NCCCNCCCCN)CC[C@]4(C)[C@H]3CC[C@]12C [Compound 318] |  | vitelline capillary regression [1]: 0
COC(=O)CC[C@@H](C)[C@H]1CC[C@H]2[C@@H]3[C@H](O)C[C@@H]4C[C@@H](NCCN)CC[C@]4(C)[C@H]3CC[C@]12C [Compound 409] |  | tadpole response similar to compound 1437 ([2]; tadpole assay): functionally similar to compound 1437; vitelline capillary regression [1]: 0
C[C@H](CCC(=O)O)[C@H]1CC[C@H]2[C@@H]3C[C@@H](O)[C@H]4C[C@@H](NCCN)CC[C@]4(C)[C@H]3CC[C@]12C [Compound 433] |  | tadpole response similar to compound 1437 ([2]; tadpole assay): functionally similar to compound 1437
COC(=O)CCC(C)[C@H]1CCC2C3C[C@@H](O)[C@H]4C[C@@H](NCCCNCCCCNCCCN)CC[C@]4(C)C3CC[C@@]21C (stereo partly shown) | 32 (≈ 54.2 µM) | 
CC(CCC(=O)O)[C@H]1CCC2C3C(CC[C@@]21C)[C@@]1(C)CC[C@H](NCCN)C[C@H]1C[C@H]3O (stereo partly shown) | 256 (≈ 589 µM) | 
CC(C)CCC[C@@H](C)[C@H]1CC[C@H]2[C@@H]3[C@H](O)C[C@H]4C[C@H](N)CC[C@]4(C)[C@H]3CC[C@]12C [Compound 1363] |  | tadpole response similar to Fraction 1 ([2]; tadpole assay): pharmacologic activity similar to Fraction 1
CC(C)CCCC(C)[C@H]1CCC2C3C(CC[C@@]21C)[C@@]1(C)CC[C@@H](NCCCNCCCCN)C[C@@H]1C[C@H]3O (stereo partly shown) | 64 (≈ 120 µM) | 
CC(CCC(=O)O)[C@H]1CCC2C3CC[C@@H]4C[C@H](NCCN)CC[C@]4(C)C3C[C@H](O)[C@@]21C (stereo partly shown) | 128 (≈ 294 µM) | 
COC(=O)CCC(C)[C@H]1CCC2C3C[C@@H](O)[C@H]4C[C@H](NCCCNCCCCNCCCN)CC[C@]4(C)C3CC[C@@]21C (stereo partly shown) | 128 (≈ 217 µM) | 
CC(CCC(=O)O)[C@H]1CCC2C3C(CC[C@@]21C)[C@@]1(C)CC[C@@H](NCCCNCCCCNCCCN)C[C@H]1C[C@H]3O (stereo partly shown) | 8 (≈ 13.9 µM) | 
COC(=O)CCC(C)[C@H]1CCC2C3CC[C@H]4C[C@H](NCCCNCCCCNCCCN)CC[C@]4(C)C3CC[C@@]21C (stereo partly shown) [drawing 74] | 64 (≈ 111 µM) | 
COC(=O)CCC(C)[C@H]1CCC2C3CC[C@@H]4C[C@H](NCCCNCCCCNCCCN)CC[C@]4(C)C3C[C@H](O)[C@@]21C (stereo partly shown) | 8 (≈ 13.5 µM) | 
COC(=O)CC[C@@H](C)[C@H]1CC[C@H]2[C@@H]3CC[C@@H]4C[C@H](NCCN)CC[C@]4(C)[C@H]3C[C@H](O)[C@]12C [Compound 416] |  | tadpole response similar to compound 1437 ([2]; tadpole assay): functionally similar to compound 1437
CC(CCC(=O)O)[C@H]1CCC2C3C[C@@H](O)[C@H]4C[C@@H](NCCN)CC[C@]4(C)C3CC[C@@]21C (stereo partly shown) | 128 (≈ 294 µM) | 
CC(C)C(CCC(C)C1CCC2C3C(O)CC4CC(NCCCNCCCCNCCCN)CCC4(C)C3CCC12C)OS(=O)(=O)O (stereo not shown) |  | Tadpole: E (epithelial) ([2]; 10 μg/mL): ±; Tadpole: M (melanocytes) ([2]; 10 μg/mL): +; Tadpole: Mus (muscle) ([2]; 10 μg/mL): -; Tadpole: V (vascular) ([2]; 10 μg/mL): +
CC(C)CCC[C@@H](C)[C@H]1CC[C@H]2[C@@H]3CC[C@H]4C[C@@H](NCCCNCCCCN)CC[C@]4(C)[C@H]3CC[C@]12C [Compound 303] |  | vitelline capillary regression [1]: 0
CC(CCC(=O)O)[C@H]1CCC2C3CC[C@@H]4C[C@H](NCCCNCCCCNCCCN)CC[C@]4(C)C3C[C@H](O)[C@@]21C (stereo partly shown) | 4 (≈ 6.93 µM) | 
CC(CCC(=O)O)[C@H]1CCC2C3C[C@@H](O)[C@H]4C[C@@H](NCCCNCCCCNCCCN)CC[C@]4(C)C3CC[C@@]21C (stereo partly shown) | 8 (≈ 13.9 µM) | 
COC(=O)CCC(C)[C@H]1CCC2C3C(CC[C@@]21C)[C@@]1(C)CC[C@H](NCCCNCCCCNCCCN)C[C@H]1C[C@H]3O (stereo partly shown) | 64 (≈ 108 µM) | 
COC(=O)CC[C@@H](C)[C@H]1CC[C@H]2[C@@H]3[C@H](O)C[C@H]4C[C@@H](NCCCNCCCCNCCCN)CC[C@]4(C)[C@H]3CC[C@]12C [Compound 396] |  | vitelline capillary regression [1]: +
COC(=O)CCC(C)[C@H]1CCC2C3C(CC[C@@]21C)[C@@]1(C)CC[C@H](NCCN)C[C@H]1C[C@H]3O (stereo partly shown) | 128 (≈ 285 µM) | 
